US11166942B2 (PRAXIS BIOTECH LLC, priority 2018, dated 2021)

What was measured:
[1] = tested on: Balb/c mice with denervated hind limb, tibialis anterior; assay: Denervation-induced muscle atrophy; type: in vivo, mouse
Method: Wild type eight-weeks-old male Balb/c mice obtained from the vivarium Fundación Ciencia & Vida Chile (Santiago, Chile) were used. Mice were housed in independent plastic cages in a room maintained at 25° C. with a 12-h:12-h light:dark cycle.
After a deeply anesthetized (isoflurane inhaled in medical oxygen), mice were denervated by surgical removal of ˜2 mm of sciatic nerve from one hindlimb. The incisions were closed using sutures. All procedures were performed under sterile conditions and the mice were daily monitored.
After seven days of denervation, animals receive oral administration every day via feeding tubes (15 gauge) of vehicle (50% Polyethylene glycol 400 (Sigma-Aldrich P3265) in distilled water) or 10 mg/kg of compound 58 formulated in vehicle solution.
After 14 days of denervation, animals were sacrificed and tibialis anterior were removed from both hindlimbs. Muscles derived from non-denervated hind limb were used as control.
Upon collection, muscles were immediately frozen in liquid nitrogen and stored at −80° C. The frozen muscles were then homogenized with a T 10 basic ULTRA-TURRAX (IKa) in ice-cold buffer lysis (Cell Signaling 9803) and protease and phosphatase inhibitors (Roche). Lysates were sonicated for 3 min and centrifuged at 13,000 rpm for 20 minutes at 4° C. Protein concentration in supernatants was determined using BCA Protein Assay Kit (Pierce). Equal amount of protein was loaded on SDS-PAGE gels. […]
ATF4 (Abcam), Atrogin-1 (ECM Biosciences), MuRF-1 (Santa Cruz Biotechnology) and R-actin (Sigma-Aldrich) antibodies were used as primary antibodies. […] Quantification of protein bands was done by densitometry using ImageJ software.
Expression of ATF4 and the muscle atrophy markers, Atrogin-1 and MuRF-1, of tibialis anterior derived from control and denervated hind limbs of mice treated with vehicle or compound 58 are shown in FIG. 11A. […] The levels were normalized to pi-actin expression and percentage was calculated as the percent relative to the expression of non-denervated hind limbs from control mice (Vehicle) which corresponds to 100%. […]

[2] = tested on: Balb/c mice with immobilized hind limb, gastrocnemius; assay: Immobilization-induced muscle atrophy; type: in vivo, mouse; details: 10 mg/kg oral
Method: Wild type eight-weeks-old male Balb/c mice obtained from the vivarium Fundación Ciencia & Vida Chile (Santiago, Chile) were used. Mice were housed in independent plastic cages, fed ad libitum in a room maintained at 25° C. with a 12-h:12-h light:dark cycle.
Twenty-four hours before and during the 3 days of immobilization procedures, animals receive oral administration via feeding tubes (15 gauge) of vehicle (50% Polyethylene glycol 400 (Sigma-Aldrich P3265) in distilled water or 10 mg/kg of test compound formulated in vehicle.
One hindlimb is immobilized with a plastic stick placed over and under the limb and fixed with a medical adhesive bandage. Animals were daily monitored. The immobilization procedure prevents movement of the immobilized leg alone. After 3 days, the animals were sacrificed and gastrocnemius muscle is removed from both hindlimbs, the contralateral, non-immobilized leg being used as an internal control.
For in vivo measurements of protein synthesis, puromycin (Sigma-Aldrich, P8833) is prepared at 0.04 μmol/g body weight in a volume of 200 μl of PBS, and subsequently administered into the animals via intraperitoneal injection, 30 min prior to muscle collection.
Upon collection, muscles were immediately frozen in liquid nitrogen and stored at −80° C. […] Protein concentration in supernatants is determined using BCA Protein Assay Kit (Pierce). […]
Puromycin (12D10) (Merck Millipore), ATF4 (Abcam), Atrogin-1 (ECM Biosciences), MuRF-1 (Santa Cruz Biotechnology) and β-actin (Sigma-Aldrich) antibodies were used as primary antibodies. […] Quantification of protein bands is done by densitometry using ImageJ software.
Expression of ATF4 and the muscle atrophy markers, Atrogin-1 and MuRF-1, of gastrocnemius derived from mobilized and immobilized hind limbs of mice treated with vehicle or compound 58 are shown in FIG. 9C. […] The levels were normalized to β-actin expression and percentage is calculated as the percent relative to the expression of mobile hind limb from control mice (Vehicle) which corresponds to 100%. […]

O=C(NN1CCN(C[C@@H](O)COc2ccc(Cl)c(F)c2)CC1)c1ccc2cc(Cl)ccc2n1 [Compound 58, (R)-6-chloro-N-(4-(3-(4-chloro-3-fluorophenoxy)-2-hydroxypropyl)piperazin-1-yl)quinoline-2-carboxamide]
reduction: ATF4 expression in tibialis anterior ([1]; 10 mg/kg oral every day from day 7 to 14, vs vehicle (FIG. 11B)) | Atrogin-1 expression in tibialis anterior ([1]; 10 mg/kg oral every day from day 7 to 14, vs vehicle (FIG. 11C)) | MuRF-1 expression in tibialis anterior ([1]; 10 mg/kg oral every day from day 7 to 14, vs vehicle (FIG. 11D)) | ATF4 expression in gastrocnemius ([2]; vs vehicle (FIG. 9D)) | Atrogin-1 expression in gastrocnemius ([2]; vs vehicle (FIG. 9E)) | MuRF-1 expression in gastrocnemius ([2]; vs vehicle (FIG. 9F))
